In patent publication US7951834B2, “Angiotensin I-converting enzyme (ACE) inhibitors” (University of Cape Town, priority 2005, dated 2011):

What was measured:
[1] = target: tACEdelta36NJ (tACE, C domain) (Homo sapiens, UniProt P12821); test: ACE inhibitory activity, fluorometric determination of phthaldialdehyde-derivatised His-Leu, tACE; format: biochemical; conditions: for inhibitory activity for ACE as compared to lisinopril: in words; for Ki: substrate ZPHL, enzyme + inhibitor incubated 3 hours at ambient temperature
Method: (§1) The ACE inhibitory activity (as tabulated in Table 1) was measured by the fluorometric determination of phthaldialdehyde-derivatised histidylleucine, a product of the enzyme reaction according to the method of Almquist et al.,^12 with some modifications. For tACEdelta36NJ and N-domain inhibition using Z-Phe-His-Leu as substrate:—10 μL of 0.05 mg/mL enzyme+120 μL inhibitor was incubated at ambient temperature for 3 hours. Inhibitor concentrations ranged from 2.0 μM to 500 μM. A 3.0 μL aliquot of this was assayed for enzyme activity using 30 μL of 1.0 mM […]. This was incubated (in triplicate) for 30 mins at 37° C. and stopped with 180 μL solution of 0.28N NaOH. To this alkalized mixture 12 μL of o-phthaldialdehyde (150 mM) was added and the mixture incubated for another 10 mins at room temperature. Reactions were stopped by adding 26 μL of 3N HCl. Fluorescence was measured at Ex=360 nm; Em=486 nm, 5×5 slit width along with a His-Leu standard calibration curve fluorometer: Varian Cary Eclipse plate reader.
(§2) All assays included enzyme incubated with buffer in the absence of inhibitor (i.e. 0 μM inhibitor concentration).

[2] = target: ACE N-domain (Homo sapiens, UniProt P12821); test: ACE inhibitory activity, fluorometric determination of phthaldialdehyde-derivatised His-Leu, N-domain; format: biochemical; conditions: substrate ZPHL; enzyme + inhibitor incubated 3 hours at ambient temperature; read-out: Ki (N-dom) ZPHL
Method: as §1, §2

Sequence of ACE N-domain (P12821 40-624 limits assumed): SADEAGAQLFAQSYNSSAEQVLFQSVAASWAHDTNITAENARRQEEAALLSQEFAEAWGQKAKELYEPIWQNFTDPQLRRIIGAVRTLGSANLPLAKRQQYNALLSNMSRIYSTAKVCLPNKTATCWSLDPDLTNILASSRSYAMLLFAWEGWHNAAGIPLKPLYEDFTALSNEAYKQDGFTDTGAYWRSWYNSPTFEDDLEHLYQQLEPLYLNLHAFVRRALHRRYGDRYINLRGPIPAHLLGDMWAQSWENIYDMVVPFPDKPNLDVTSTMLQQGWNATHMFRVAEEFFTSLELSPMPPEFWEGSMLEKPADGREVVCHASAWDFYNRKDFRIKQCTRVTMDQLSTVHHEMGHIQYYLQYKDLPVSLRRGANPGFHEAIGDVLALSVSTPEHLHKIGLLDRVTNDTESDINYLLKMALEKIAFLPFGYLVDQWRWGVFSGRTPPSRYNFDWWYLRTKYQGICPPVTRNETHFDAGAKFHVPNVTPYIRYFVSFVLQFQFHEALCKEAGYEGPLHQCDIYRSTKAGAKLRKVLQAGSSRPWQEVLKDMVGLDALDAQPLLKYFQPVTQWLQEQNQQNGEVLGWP
Sequence of tACEdelta36NJ (tACE, C domain) (P12821 642-1230 limits assumed): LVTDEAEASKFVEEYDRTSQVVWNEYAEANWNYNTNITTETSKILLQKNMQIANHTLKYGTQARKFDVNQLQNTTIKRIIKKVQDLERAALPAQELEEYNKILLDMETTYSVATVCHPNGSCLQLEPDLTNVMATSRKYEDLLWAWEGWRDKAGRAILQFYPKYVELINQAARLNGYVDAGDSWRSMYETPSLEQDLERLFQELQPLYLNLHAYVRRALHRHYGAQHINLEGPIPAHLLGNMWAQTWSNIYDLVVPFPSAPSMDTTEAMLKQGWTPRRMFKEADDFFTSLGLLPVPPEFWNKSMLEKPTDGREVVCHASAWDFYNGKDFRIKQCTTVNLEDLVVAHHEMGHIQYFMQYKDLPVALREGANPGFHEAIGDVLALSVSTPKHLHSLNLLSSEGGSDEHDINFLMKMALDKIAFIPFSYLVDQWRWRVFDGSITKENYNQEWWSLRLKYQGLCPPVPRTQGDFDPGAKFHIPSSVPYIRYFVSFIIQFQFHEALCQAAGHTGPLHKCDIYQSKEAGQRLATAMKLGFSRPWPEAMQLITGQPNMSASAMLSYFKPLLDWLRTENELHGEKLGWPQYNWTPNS

SMILES | inhibitory activity for ACE as compared to lisinopril [1] | Ki [1] [µM] | Ki [2] [µM] | domain selectivity (in words) ([1]; N-domain versus tACE (C domain)) | melting point [°C] | C-domain specific (fold) ([1]; tACE (C domain) versus N-domain)
O=C(N[C@@H](Cc1ccccc1)C(=O)CCC(=O)N1CCC[C@H]1C(=O)O)c1ccccc1 [Compound 5a, (5S)-5-[(N-benzoyl)amino]-4-oxo-6-phenyl-hexanoyl-L-proline] | weak inhibitory activity | – | – | – | – | –
O=C(CCC(=O)[C@H](Cc1ccccc1)NC(=O)c1ccccc1)N[C@@H](Cc1ccccc1)C(=O)O [Compound 5c, (5S)-5-[(N-benzoyl)amino]-4-oxo-6-phenyl-hexanoyl-L-phenylalanine] | weak inhibitory activity | 23.7 | 84.3 | – | – | –
CC(C)(C)OC(=O)N[C@@H](Cc1ccccc1)C(=O)CCC(=O)N1CCC[C@H]1C(=O)O [Compound 11a, (5S)-6-phenyl-5-[(tert-butyloxycarbonyl)-amino]-4-oxo-hexanoyl-L-proline] | weak inhibitory activity | 144 | 33.6 | inhibits N-domain more effectively than tACE | – | –
CC(C)(C)OC(=O)N[C@@H](Cc1ccccc1)C(=O)CCC(=O)N[C@@H](Cc1c[nH]c2ccccc12)C(=O)O [Compound 11b, (5S)-6-phenyl-5-[(tert-butyloxycarbonyl)-amino]-4-oxo-hexanoyl-L-tryptophan] | – | – | – | – | 141 to 143 | –
O=C(CCC(=O)[C@H](Cc1ccccc1)NC(=O)c1ccccc1)N[C@@H](Cc1c[nH]c2ccccc12)C(=O)O [Compound 5b, (5S)-5-[(N-benzoyl)amino]-4-oxo-6-phenyl-hexanoyl-L-tryptophan] | weak inhibitory activity | 0.8 | 196 | – | 171 to 173 | 245
